From patent publication US20070128217A1 (priority 2003, published 2007)

Columns and labels:
[1] = tested on: control sera (pooled serum of ten healthy LUMC hospital workers; commercial negative donor pooled serum from the Dutch bloodbank); format: binding, human; set-up: Binding of Control serum LUMC to linear peptides / Binding of Control serum Blood-bank to linear peptides / Binding of Control serum LUMC to looped peptides / Binding of Control Serum Blood-Bank to Looped peptides / Binding of Control serum LUMC to linear peptides of the protein M of SARS-CoV Urbani / Binding of Control serum Blood-bank to linear peptides of the protein M of SARS-CoV Urbani / Binding of Control serum LUMC to looped peptides of the protein M of SARS-CoV Urbani / Binding of Control Serum Blood-Bank to Looped peptides of the protein M of SARS-CoV Urbani: unit not given here
[2] = tested on: antibodies in sera from SARS patients (sera 1a, 1b, 2, 6, 37, 62, London, SARS-yellow, SARS-green); format: binding, human; set-up: Binding of serum 6 to linear peptides of protein X1 of SARS-CoV Urbani / Binding of serum 37 to linear peptides of protein X1 of SARS-CoV Urbani / Binding of serum 6 to looped/cyclic peptide (PEPSCAN-ELISA) / Binding of serum 37 to looped/cyclic peptide (PEPSCAN-ELISA) / Binding of serum 37 to looped/cyclic peptides of protein X1 of SARS-CoV Urbani / Binding of serum 6 to linear peptides of protein X2 / Binding of serum 37 to linear peptides of protein X2 / Binding of serum 37 to looped/cyclic peptides of protein X2 of SARS-CoV Urbani / Binding of serum 6 to linear peptides of protein M of SARS-CoV Urbani / Binding of serum 37 to linear peptides of protein M of SARS-CoV Urbani / Binding of serum 6 to looped/cyclic peptides of protein M of SARS-CoV Urbani / Binding of serum 37 to looped/cyclic peptides of protein M of SARS-CoV Urbani / Binding of serum 6 to linear peptides of protein X3 of SARS-CoV Urbani / Binding of serum 37 to linear peptides of protein X3 of SARS-CoV Urbani / Binding of serum 37 to looped/cyclic peptides of protein X3 of SARS-CoV Urbani / Binding of serum 6 to linear peptides of protein X4 of SARS-CoV Urbani / Binding of serum 37 to linear peptides of protein X4 of SARS-CoV Urbani / Binding of serum 37 to looped/cyclic peptides of protein X4 of SARS-CoV Urbani / Binding of serum 6 to linear peptides of protein X5 of SARS-CoV Urbani / Binding of serum 37 to linear peptides of protein X5 of SARS-CoV Urbani / Binding of serum 37 to looped/cyclic peptides of protein X5 of SARS-CoV Urbani / Binding of serum 6 to linear peptides of protein N of SARS-CoV Urbani / Binding of serum 37 to linear peptides of protein N of SARS-CoV Urbani / Binding of serum 6 to linear peptide (PEPSCAN-ELISA) / Binding of serum 1a to looped/cyclic peptides of protein N of SARS-CoV Urbani / Binding of serum 1b to looped/cyclic peptides of protein N of SARS-CoV Urbani / Binding of serum 2 to looped/cyclic peptides of protein N of SARS-CoV Urbani / Binding of serum 6 to looped/cyclic peptides of protein N of SARS-CoV Urbani / Binding of serum 37 to looped/cyclic peptides of protein N of SARS-CoV Urbani / Binding of serum 62 to looped/cyclic peptides of protein N of SARS-CoV Urbani / Binding of serum London to looped/cyclic peptides of protein N of SARS-CoV Urbani / Binding of serum SARS-green to looped/cyclic peptides of protein N of SARS-CoV Urbani: unit not given here
[3] = tested on: rabbit serum obtained by immunizing a rabbit with the SARS-CoV strain Frankfurt 1; format: binding; set-up: Binding of a rabbit serum to linear peptides / Binding of a rabbit serum to looped peptides / Rabbit serum linear peptides / Rabbit serum looped peptides / Binding of a rabbit serum to linear peptides of protein N of SARS-CoV Urbani (Rabbit serum linear peptides) / Binding of a rabbit serum to looped/cyclic peptides of protein N of SARS-CoV Urbani (Rabbit serum looped peptides): unit not given here

VFLWLLWPVTLACFV
0.5: Binding of serum 6 to looped/cyclic peptides of protein M of SARS-CoV Urbani [2] | Binding of serum 37 to linear peptides of protein M of SARS-CoV Urbani [2] | Binding of serum 62 to linear peptides of protein M of SARS-CoV Urbani [2] | Binding of serum London to linear peptides of protein M of SARS-CoV Urbani [2]
0.3: Binding of serum SARS-green to looped/cyclic peptides of protein M of SARS-CoV Urbani [2] | Binding of serum SARS-yellow to linear peptides of protein M of SARS-CoV Urbani [2] | Rabbit serum linear peptides [3] | Rabbit serum looped peptides [3]
0.7: Binding of serum 1a to looped/cyclic peptides of protein M of SARS-CoV Urbani [2] | Binding of serum 2 to looped/cyclic peptides of protein M of SARS-CoV Urbani [2] | Binding of serum 37 to looped/cyclic peptides of protein M of SARS-CoV Urbani [2] | Binding of serum 62 to looped/cyclic peptides of protein M of SARS-CoV Urbani [2]
0.2: Binding of serum London to looped/cyclic peptides of protein M of SARS-CoV Urbani [2]
0.8: Binding of Control Serum Blood-Bank to Looped peptides of the protein M of SARS-CoV Urbani [1] | Binding of Control serum LUMC to looped peptides of the protein M of SARS-CoV Urbani [1] | Binding of serum 1a to linear peptides of protein M of SARS-CoV Urbani [2] | Binding of serum SARS-yellow to looped/cyclic peptides of protein M of SARS-CoV Urbani [2]
0.6: Binding of Control serum Blood-bank to linear peptides of the protein M of SARS-CoV Urbani [1] | Binding of Control serum LUMC to linear peptides of the protein M of SARS-CoV Urbani [1] | Binding of serum 1b to linear peptides of protein M of SARS-CoV Urbani [2] | Binding of serum 2 to linear peptides of protein M of SARS-CoV Urbani [2] | Binding of serum SARS-green to linear peptides of protein M of SARS-CoV Urbani [2]
0.0: Binding of serum 1b to looped/cyclic peptides of protein M of SARS-CoV Urbani [2]
0.4: Binding of serum 6 to linear peptides of protein M of SARS-CoV Urbani [2]

VIGFLFLAWIMLLQF
0.2: Binding of serum London to looped/cyclic peptides of protein M of SARS-CoV Urbani [2] | Binding of serum SARS-green to linear peptides of protein M of SARS-CoV Urbani [2]
0.3: Binding of Control serum LUMC to linear peptides of the protein M of SARS-CoV Urbani [1] | Binding of serum 6 to linear peptides of protein M of SARS-CoV Urbani [2] | Binding of serum London to linear peptides of protein M of SARS-CoV Urbani [2] | Binding of serum SARS-green to looped/cyclic peptides of protein M of SARS-CoV Urbani [2] | Rabbit serum linear peptides [3] | Rabbit serum looped peptides [3]
0.5: Binding of Control serum Blood-bank to linear peptides of the protein M of SARS-CoV Urbani [1] | Binding of serum 2 to looped/cyclic peptides of protein M of SARS-CoV Urbani [2] | Binding of serum 6 to looped/cyclic peptides of protein M of SARS-CoV Urbani [2] | Binding of serum 37 to looped/cyclic peptides of protein M of SARS-CoV Urbani [2]
0.7: Binding of Control Serum Blood-Bank to Looped peptides of the protein M of SARS-CoV Urbani [1] | Binding of Control serum LUMC to looped peptides of the protein M of SARS-CoV Urbani [1] | Binding of serum 1a to linear peptides of protein M of SARS-CoV Urbani [2] | Binding of serum 1a to looped/cyclic peptides of protein M of SARS-CoV Urbani [2] | Binding of serum 37 to linear peptides of protein M of SARS-CoV Urbani [2] | Binding of serum 62 to linear peptides of protein M of SARS-CoV Urbani [2] | Binding of serum 62 to looped/cyclic peptides of protein M of SARS-CoV Urbani [2]
0.6: Binding of serum SARS-yellow to looped/cyclic peptides of protein M of SARS-CoV Urbani [2]
0.0: Binding of serum SARS-yellow to linear peptides of protein M of SARS-CoV Urbani [2]
0.4: Binding of serum 1b to linear peptides of protein M of SARS-CoV Urbani [2] | Binding of serum 1b to looped/cyclic peptides of protein M of SARS-CoV Urbani [2] | Binding of serum 2 to linear peptides of protein M of SARS-CoV Urbani [2]

VIGVAFLAVFQSATK
0.5: Binding of Control Serum Blood-Bank to Looped peptides [1] | Binding of Control serum Blood-bank to linear peptides [1] | Binding of Control serum LUMC to linear peptides [1] | Binding of Control serum LUMC to looped peptides [1] | Binding of serum 1a to linear peptides of protein X1 of SARS-CoV Urbani [2] | Binding of serum 37 to linear peptides of protein X1 of SARS-CoV Urbani [2] | Binding of serum SARS-yellow to looped/cyclic peptide (PEPSCAN-ELISA) [2]
0.4: Binding of serum 1a to looped/cyclic peptide (PEPSCAN-ELISA) [2] | Binding of serum 1b to linear peptides of protein X1 of SARS-CoV Urbani [2] | Binding of serum 2 to linear peptides of protein X1 of SARS-CoV Urbani [2] | Binding of serum 6 to linear peptides of protein X1 of SARS-CoV Urbani [2] | Binding of serum 37 to looped/cyclic peptide (PEPSCAN-ELISA) [2] | Binding of serum 62 to linear peptides of protein X1 of SARS-CoV Urbani [2] | Binding of serum 62 to looped/cyclic peptide (PEPSCAN-ELISA) [2]
0.6: Binding of serum 6 to looped/cyclic peptide (PEPSCAN-ELISA) [2] | Binding of a rabbit serum to looped peptides [3]
0.1: Binding of serum SARS-green to linear peptides of protein X1 of SARS-CoV Urbani [2] | Binding of a rabbit serum to linear peptides [3]
0.3: Binding of serum 1b to looped/cyclic peptide (PEPSCAN-ELISA) [2] | Binding of serum 2 to looped/cyclic peptide (PEPSCAN-ELISA) [2]
0.7: Binding of serum London to looped/cyclic peptide (PEPSCAN-ELISA) [2]
0.2: Binding of serum London to linear peptides of protein X1 of SARS-CoV Urbani [2] | Binding of serum SARS-green to looped/cyclic peptide (PEPSCAN-ELISA) [2] | Binding of serum SARS-yellow to linear peptides of protein X1 of SARS-CoV Urbani [2]

VKDYVVVHGYFTEVY
0.6: Binding of Control serum LUMC to looped peptides [1] | Binding of serum 1b to linear peptides of protein X1 of SARS-CoV Urbani [2] | Binding of serum 37 to linear peptides of protein X1 of SARS-CoV Urbani [2] | Binding of serum 37 to looped/cyclic peptides of protein X1 of SARS-CoV Urbani [2] | Binding of a rabbit serum to looped peptides [3]
0.2: Binding of serum 6 to looped/cyclic peptides of protein X1 of SARS-CoV Urbani [2] | Binding of serum London to linear peptides of protein X1 of SARS-CoV Urbani [2] | Binding of serum London to looped/cyclic peptides of protein X1 of SARS-CoV Urbani [2] | Binding of serum SARS-green to linear peptides of protein X1 of SARS-CoV Urbani [2] | Binding of serum SARS-green to looped/cyclic peptides of protein X1 of SARS-CoV Urbani [2]
0.4: Binding of serum 1b to looped/cyclic peptides of protein X1 of SARS-CoV Urbani [2] | Binding of serum 2 to linear peptides of protein X1 of SARS-CoV Urbani [2] | Binding of serum 2 to looped/cyclic peptides of protein X1 of SARS-CoV Urbani [2] | Binding of serum 6 to linear peptides of protein X1 of SARS-CoV Urbani [2] | Binding of serum SARS-yellow to linear peptides of protein X1 of SARS-CoV Urbani [2]
0.1: Binding of a rabbit serum to linear peptides [3]
0.5: Binding of Control Serum Blood-Bank to Looped peptides [1] | Binding of Control serum Blood-bank to linear peptides [1] | Binding of Control serum LUMC to linear peptides [1] | Binding of serum 1a to looped/cyclic peptides of protein X1 of SARS-CoV Urbani [2] | Binding of serum 62 to linear peptides of protein X1 of SARS-CoV Urbani [2] | Binding of serum 62 to looped/cyclic peptides of protein X1 of SARS-CoV Urbani [2] | Binding of serum SARS-yellow to looped/cyclic peptides of protein X1 of SARS-CoV Urbani [2]
0.7: Binding of serum 1a to linear peptides of protein X1 of SARS-CoV Urbani [2]

VLAAVYRINWVTGGI
0.6: Binding of serum 1a to looped/cyclic peptides of protein M of SARS-CoV Urbani [2] | Binding of serum 2 to looped/cyclic peptides of protein M of SARS-CoV Urbani [2] | Binding of serum 37 to linear peptides of protein M of SARS-CoV Urbani [2] | Binding of serum 37 to looped/cyclic peptides of protein M of SARS-CoV Urbani [2] | Binding of serum 62 to linear peptides of protein M of SARS-CoV Urbani [2] | Binding of serum SARS-green to linear peptides of protein M of SARS-CoV Urbani [2] | Binding of serum SARS-yellow to looped/cyclic peptides of protein M of SARS-CoV Urbani [2]
0.0: Rabbit serum looped peptides [3]
0.3: Rabbit serum linear peptides [3]
0.5: Binding of serum 1b to looped/cyclic peptides of protein M of SARS-CoV Urbani [2] | Binding of serum 6 to linear peptides of protein M of SARS-CoV Urbani [2] | Binding of serum 62 to looped/cyclic peptides of protein M of SARS-CoV Urbani [2]
0.2: Binding of serum London to looped/cyclic peptides of protein M of SARS-CoV Urbani [2] | Binding of serum SARS-green to looped/cyclic peptides of protein M of SARS-CoV Urbani [2] | Binding of serum SARS-yellow to linear peptides of protein M of SARS-CoV Urbani [2]
1.0: Binding of Control serum LUMC to linear peptides of the protein M of SARS-CoV Urbani [1]
0.9: Binding of Control serum Blood-bank to linear peptides of the protein M of SARS-CoV Urbani [1]
0.8: Binding of Control Serum Blood-Bank to Looped peptides of the protein M of SARS-CoV Urbani [1] | Binding of Control serum LUMC to looped peptides of the protein M of SARS-CoV Urbani [1] | Binding of serum 1a to linear peptides of protein M of SARS-CoV Urbani [2]
0.4: Binding of serum London to linear peptides of protein M of SARS-CoV Urbani [2]
0.7: Binding of serum 1b to linear peptides of protein M of SARS-CoV Urbani [2] | Binding of serum 2 to linear peptides of protein M of SARS-CoV Urbani [2] | Binding of serum 6 to looped/cyclic peptides of protein M of SARS-CoV Urbani [2]
